Source: US7759101B2, “Ginsenoside glycosidases hydrolyzing ginsenoside sugar moieties and uses thereof” (priority 2000, dated 2010)

Legend:
[1] = tested on: ginsenoside glycosidases from A. niger; test: Hydrolysis of ginsenosides with crude ginsenoside glycosidases from A. niger, products measured by TLC; assay type: biochemical, Aspergillus niger
Description: Aspergillus niger FFCCDL-48 g was cultured in a medium containing 1% ginseng extracts and 3% wheat bran extracts at 30° C. for 54 hours. Cells were removed by centrifugation, after which (NH4)2SO4 powder was added to 2000 ml of the cell-free supernatant with stirring to 65% saturation. The solution was stored overnight at 4° C. and precipitated proteins were collected by centrifugation, resuspended in 80 ml of distilled water and dialyzed against 0.01M acetate buffer pH 5. Insolubles were removed by centrifugation, and the solution was adjusted to 200 ml with 0.01 M acetate buffer pH 5. The crude enzyme solution may be used to hydrolyze ginsenosides or to purify the enzymes.
100 mg each of ginsenosides Rb1, Rb2, Rc and Rd and 10 mg of ginsenoside Rg3 were dissolved in separate tubes containing 10 ml of 0.01M acetate buffer pH 5. 10 ml of the crude enzyme solution obtained in 1.1 was added to each tube and allowed to react at 30° C. for 18 hours. Then 10 ml of n-butanol was added to stop the reactions. The products were measured by thin layer chromatography (TLC) (Silica gel 60-F254, Merck; chloroform:methanol:water 70:30:5).
Experiments were carried out to explore the effects of temperature, pH, metal ions and reaction time on the enzyme reaction, in order to further characterize the enzymes.
100 mg of ginsenoside Rb1 was used in a reaction under the conditions as described in 1.2 and the effect of temperature was shown in Table 2.

[2] = tested on: Enzymes from Animal Liver; test: Hydrolysis of Rb1 with enzymes from animal liver; assay type: biochemical, bovine; conditions: 1% Rb1 solution, pH 5, 20% ethanol, 40° C., 20 hours
Description: 100 g of bovine liver was minced and added to 300 ml of 0.01 M acetate buffer pH 5 for extraction under room temperature for two hours. The mixture was centrifuged and (NH4)2SO4 was added to the supernatant to 70% saturation to precipitate the enzymes. The mixture was stored at 4° C. overnight. Precipitates were collected by centrifugation and dialyzed against 0.01 M acetate buffer pH 5. Impurities were removed and 15 ml of enzyme solution was obtained. 10 ml of the enzyme solution was allowed to react with 10 ml of 1% Rb1 solution (in 0.01 M acetate buffer pH 5 containing 20% ethanol) at 40° C. for 20 hours.

[3] = tested on: Enzymes from Plant Seeds—Almond; test: Hydrolysis of Rb1 with enzymes from almond; assay type: biochemical; conditions: 1% Rb1 solution, pH 5, 20% ethanol, 50° C., 14 hours
Description: 100 g of almond was ground and added to 300 ml of 0.01 M acetate buffer pH 5 for extraction under room temperature for two hours. The mixture was centrifuged. (NH4)2SO4 was added to the supernatant to 60% saturation to precipitate the enzymes. The mixture was stored at 4° C. overnight. Precipitates were collected by centrifugation and dialyzed against 0.01 M acetate buffer pH 5. Impurities were removed and 30 ml of enzyme solution was obtained. 10 ml of the enzyme solution was allowed to react with 10 ml of 1% Rb1 solution (in 0.01 M acetate buffer pH 5 containing 20% ethanol) at 50° C. for 14 hours.

[4] = Rb1 0.5%, pH 4.0, 30° C., 18 hours
[5] = Rb1 0.5%, pH 5.0, 30° C., 18 hours
[6] = Rb1 0.5%, pH 6.0, 30° C., 18 hours
[7] = Rb1 0.5%, pH 7.0, 30° C., 18 hours
[8] = Rb1 0.5%, pH 8.0, 30° C., 18 hours
[9] = Rb1 0.5%, reaction time 1 hours, pH 5, 30° C.
[10] = Rb1 0.5%, reaction time 4 hours, pH 5, 30° C.
[11] = Rb1 0.5%, reaction time 8 hours, pH 5, 30° C.
[12] = Rb1 0.5%, reaction time 12 hours, pH 5, 30° C.
[13] = Rb1 0.5%, reaction time 18 hours, pH 5, 30° C.
[14] = Rb1 0.5%, reaction time 24 hours, pH 5, 30° C.
[15] = Rb1 0.5%, reaction time 30 hours, pH 5, 30° C.
[16] = Rb1 0.5%, reaction time 36 hours, pH 5, 30° C.

CC(C)=CCC[C@](C)(O[C@@H]1O[C@H](CO[C@@H]2O[C@H](CO)[C@@H](O)[C@H](O)[C@H]2O)[C@@H](O)[C@H](O)[C@H]1O)[C@H]1CC[C@]2(C)[C@@H]1[C@H](O)C[C@@H]1[C@@]3(C)CC[C@H](O[C@@H]4O[C@H](CO)[C@@H](O)[C@H](O)[C@H]4O[C@@H]4O[C@H](CO)[C@@H](O)[C@H](O)[C@H]4O)C(C)(C)[C@@H]3CC[C@]12C [Rb1, ginsenoside Rb1]
Percentage of Rh2 in the reaction product [1, 4]: 7%
Percentage of aglycone in the reaction product [1, 4]: 5%
Percentage of C—K in the reaction product [1, 5]: 16%
Percentage of F2 in the reaction product [1, 5]: 63%
Percentage of Rd in the reaction product [1, 5]: 10%
Percentage of Rh2 in the reaction product [1, 5]: 5%
Percentage of aglycone in the reaction product [1, 5]: 5%
Percentage of C—K in the reaction product [1, 6]: 21%
Percentage of F2 in the reaction product [1, 6]: 56%
Percentage of Rd in the reaction product [1, 6]: 15%
Percentage of Rh2 in the reaction product [1, 6]: 4%
Percentage of aglycone in the reaction product [1, 6]: 4%
Percentage of C—K in the reaction product [1, 7]: 6%
Percentage of F2 in the reaction product [1, 7]: 41%
Percentage of Rb1 in the reaction product [1, 7]: 10%
Percentage of Rd in the reaction product [1, 7]: 41%
Percentage of Rg3 in the reaction product [1, 7]: 2%
Percentage of Rh2 in the reaction product [1, 7]: 2%
Percentage of aglycone in the reaction product [1, 7]: 2%
Percentage of C—K in the reaction product [1, 8]: 6%
Percentage of F2 in the reaction product [1, 8]: 36%
Percentage of Rb1 in the reaction product [1, 8]: 20%
Percentage of Rd in the reaction product [1, 8]: 45%
Percentage of Rg3 in the reaction product [1, 8]: 3%
Percentage of Rb1 in the reaction product [1, 9]: 38%
Percentage of Rd in the reaction product [1, 9]: 62%
Percentage of F2 in the reaction product [1, 10]: 10%
Percentage of Rb1 in the reaction product [1, 10]: 12%
Percentage of Rd in the reaction product [1, 10]: 72%
Percentage of C—K in the reaction product [1, 11]: 2%
Percentage of F2 in the reaction product [1, 11]: 38%
Percentage of Rb1 in the reaction product [1, 11]: 8%
Percentage of Rd in the reaction product [1, 11]: 51%
Percentage of C—K in the reaction product [1, 12]: 6%
Percentage of F2 in the reaction product [1, 12]: 54%
Percentage of Rb1 in the reaction product [1, 12]: 6%
Percentage of Rd in the reaction product [1, 12]: 30%
Percentage of Rh2 in the reaction product [1, 12]: 2%
Percentage of aglycone in the reaction product [1, 12]: 2%
Percentage of C—K in the reaction product [1, 13]: 16%
Percentage of F2 in the reaction product [1, 13]: 63%
Percentage of Rd in the reaction product [1, 13]: 10%
Percentage of Rh2 in the reaction product [1, 13]: 5%
Percentage of aglycone in the reaction product [1, 13]: 5%
Percentage of C—K in the reaction product [1, 14]: 24%
Percentage of F2 in the reaction product [1, 14]: 60%
Percentage of Rd in the reaction product [1, 14]: 8%
Percentage of Rh2 in the reaction product [1, 14]: 4%
Percentage of aglycone in the reaction product [1, 14]: 4%
Percentage of C—K in the reaction product [1, 15]: 44%
Percentage of F2 in the reaction product [1, 15]: 40%
Percentage of Rd in the reaction product [1, 15]: 5%
Percentage of Rg3 in the reaction product [1, 15]: 2%
Percentage of Rh2 in the reaction product [1, 15]: 6%
Percentage of aglycone in the reaction product [1, 15]: 3%
Percentage of C—K in the reaction product [1, 16]: 52%
Percentage of F2 in the reaction product [1, 16]: 30%
Percentage of Rd in the reaction product [1, 16]: 2%
Percentage of Rg3 in the reaction product [1, 16]: 3%
Percentage of Rh2 in the reaction product [1, 16]: 7%
Percentage of aglycone in the reaction product [1, 16]: 6%
Percentage of C—K in the reaction product ([1]; pH 5, 30° C., 18 hours): 16%
Percentage of F2 in the reaction product ([1]; pH 5, 30° C., 18 hours): 63%
Percentage of Rb1 in the reaction product ([1]; pH 5, 30° C., 18 hours): 1%
Percentage of Rd in the reaction product ([1]; pH 5, 30° C., 18 hours): 10%
Percentage of Rh2 in the reaction product ([1]; pH 5, 30° C., 18 hours): 5%
Percentage of aglycone in the reaction product ([1]; pH 5, 30° C., 18 hours): 5%
Rb1 converted to ginsenosides with lower sugar contents [2]: 50%
Rb1 converted to ginsenosides with lower sugar contents [3]: 40%
